Where two headings read alike, the source gives them in different places. Blank lines part the entries; values can stand above or below the compound they belong to.
Tests used:
[1] = system: breast cancer cell line HS578T; test: In vitro cytotoxicity, MTS assay, breast cancer cells; assay type: cell-based, human; details: 7 days exposure, dose causing death to 50% of cells, read-out: Cell Survival ED 50 Breast
Procedure: (§1) In these experiments, cells were seeded at 400 cells per well 24 hours prior to addition of the test compound. Cells were grown at 37° C. in a humidified atmosphere of 95% air, 5% CO2 for 7 days with daily media changes. Cytotoxicity was assessed using the CellTiter 96 Aqueous Proliferation Assay (Promega, Madison, Wis.).

[2] = system: hormone-independent prostate cancer cell line DU145; test: In vitro cytotoxicity, MTS (CellTiter 96 Aqueous Proliferation Assay), prostate cancer cells; assay type: cell-based, human; details: 7 days exposure, MTS, dose causing death to 50% of cells, read-out: Cell Survival ED 50 Prostate
Procedure: FIG. 1 is a graph which compares the effects of the compound of Example 8 on normal human endothelial cells (AH-9) and human prostate cancer cells (DU145). Cells were exposed to the compound for seven days at the concentrations indicated. Cytotoxicity was assessed using the MTS assay.
as §1
In a separate experiment (FIG. 1), normal human endothelial cells (AH-9) and human prostate cancer cells (DU145) were exposed to increasing concentrations of the compound of Example 8 for seven days.

[3] = system: pancreas cancer cell line HS766T; test: In vitro cytotoxicity, MTS assay, pancreas cancer cells; assay type: cell-based, human; details: Homo sapiens, 168 h, 7 days exposure, dose causing death to 50% of cells, read-out: Cell Survival ED 50 Pancreas
Procedure: as §1

[4] = Mouse formalin test pain model, late phase; assay type: in vivo
Procedure: The formalin test was conducted using standard procedures (Hunskaar et al., J. Neurosci. Meth. 14:69-76 (1985). Mice (male CF-1, 20-25 g) were placed in Plexiglass jars for at least 1 hr to accommodate to the environment
The animals received either test drug at 5-50 mg/kg p.o. or the appropriate volume of vehicle (normal saline). Thirty minutes after p.o. dosing mice were injected with formalin (20 μl of 2.5% formaldehyde solution in saline) into the dorsal surface of the right hind paw.
All experiments were done in a blinded manner. The late phase of the formalin response was measured as licking/biting from 10-50 minutes after formalin injection. Differences between groups were analyzed by one-way analysis of variance (ANOVA), A P value ≦0.05 was considered significant. Reduction in the time spent licking/biting in the late phase of the formalin response is considered an indication of a reduction in chronic pain.

SMILES: Cc1ccc(NC(=NCCCOCCCCOCCCN=C(Nc2ccc(C)cc2)Nc2ccc(C)cc2)Nc2ccc(C)cc2)cc1 [Example 15]
EC50 [1]: 900 nM
EC50 [2]: 2500 nM

SMILES: Cc1ccc(NC(=N)N(CCCCN)c2ccc(C)cc2)cc1 [Example 4, 1-Amino-4-[(N,N′-di-p-tolyl)guanidinyl]butane]
EC50 [3]: 200 nM
EC50 ([1]; Homo sapiens, Hs-578T, 168 h): 1700 nM
EC50 ([2]; Homo sapiens, DU-145, 168 h): 2500 nM

SMILES: C[C@]12CC[C@@H]3c4ccc(OC(=O)N(CCCl)CCCl)cc4CC[C@H]3[C@@H]1CC[C@@H]2O [Estramustine, reference compound]
EC50 ([2]; Homo sapiens, DU-145, 168 h): 11000 nM

SMILES: Cc1ccc(N=C(Nc2ccc(C)cc2)N2CCOCCOCCN(C(=Nc3ccc(C)cc3)Nc3ccc(C)cc3)CCOCCOCC2)cc1 [Example 16, 7,16-Di-[(N,N′-Di-p-tolyl)amidino]-1,4,10,13-tetraoxa-7,16-diazacyclooctadecane]
EC50 ([1]; Homo sapiens, Hs-578T, 168 h): 600 nM
EC50 ([2]; Homo sapiens, DU-145, 168 h): 1000 nM

SMILES: CC[C@]1(O)C[C@@H]2CN(CCc3c([nH]c4ccccc34)[C@@](C(=O)OC)(c3cc4c(cc3OC)N(C)[C@H]3[C@@](O)(C(=O)OC)[C@H](OC(C)=O)[C@]5(CC)C=CCN6CC[C@]43[C@@H]65)C2)C1 [Vinblastine, vinblastine, reference compound]
EC50 [3]: 200 nM
EC50 ([1]; Homo sapiens, Hs-578T, 168 h): 1200 nM
EC50 ([2]; Homo sapiens, DU-145, 168 h): 4000 nM

SMILES: Cc1ccc(NC(=N)N(CCCCN(C(=N)Nc2ccc(C)cc2)c2ccc(C)cc2)c2ccc(C)cc2)cc1 [Example 5, 1,4-Di-[(N,N′-di-p-tolyl)guanidinyl]butane]
EC50 ([1]; Homo sapiens, Hs-578T, 168 h): 300 nM
EC50 ([2]; Homo sapiens, DU-145, 168 h): 700 nM

SMILES: COc1cc([C@@H]2c3cc4c(cc3[C@@H](O[C@@H]3O[C@@H]5CO[C@@H](C)O[C@H]5[C@H](O)[C@H]3O)[C@H]3COC(=O)[C@H]23)OCO4)cc(OC)c1O [Etoposide, etoposide, reference compound]
EC50 [3]: 2000 nM
EC50 ([1]; Homo sapiens, Hs-578T, 168 h): 400 nM
EC50 ([2]; Homo sapiens, DU-145, 168 h): 600 nM

SMILES: COc1cccc2c1C(=O)c1c(O)c3c(c(O)c1C2=O)C[C@@](O)(C(=O)CO)C[C@@H]3O[C@H]1C[C@H](N)[C@H](O)[C@H](C)O1 [Doxorubicin, doxorubicin, reference compound]
EC50 [3]: 300 nM
EC50 ([1]; Homo sapiens, Hs-578T, 168 h): 2000 nM
EC50 ([2]; Homo sapiens, DU-145, 168 h): 7000 nM

SMILES: Cc1ccc(N(c2ccc(C)cc2)N2CCC(C#N)(c3ccccc3)CC2)cc1 [Example 14, 4-Cyano-1-[(N,N′-di-p-tolyl)amino]-4-phenylpiperidine]
EC50 ([1]; Homo sapiens, Hs-578T, 168 h): 4600 nM
EC50 ([2]; Homo sapiens, DU-145, 168 h): 10800 nM

effect on general behavior of the animals ([4]; at the doses effective in the formalin test, p.o.): did not affect the general behavior
SMILES: Cc1ccc(NC(=N)N(CCN(C(=N)Nc2ccc(C)cc2)c2ccc(C)cc2)c2ccc(C)cc2)cc1 [Example 21, 1,2-Di-[(N,N′-di-p-tolyl)guanidinyl]ethane]
late phase pain versus control vehicle (post-hoc Newman-Kuels test) ([4]; 30 mg/kg orally): significant at P<0.05
time spent licking, late phase of formalin response (in words) ([4]; oral administration, 5-50 mg/kg, male CF-1 mice): dose-dependent reduction in the time spent licking

SMILES: Cc1ccc(NC(=N)N(CCc2c[nH]c3ccccc23)c2ccc(C)cc2)cc1 [Example 9, 1-[(N,N′-di-p-tolyl)guanidinyl]-2-(3-indolyl)ethane]
EC50 [3]: 500 nM
EC50 ([1]; Homo sapiens, Hs-578T, 168 h): 4200 nM
EC50 ([2]; Homo sapiens, DU-145, 168 h): 5100 nM
